According to article PMC5564600 (Oncotarget, 2017):

Key:
Assay in all cases: biochemical
Type in all cases: binding
panel of 442 kinases [1] = molecular target: T1, panel of 442 kinases (Homo sapiens, UniProt O14976); conditions: kinase GAK; for remaining activity at 1 µM: read-out: % of control at 1 µM
T1 construct: purchased Ambit Biosciences (scanMAXX KINOMEscan)
T1 sequence (O14976 1-1311): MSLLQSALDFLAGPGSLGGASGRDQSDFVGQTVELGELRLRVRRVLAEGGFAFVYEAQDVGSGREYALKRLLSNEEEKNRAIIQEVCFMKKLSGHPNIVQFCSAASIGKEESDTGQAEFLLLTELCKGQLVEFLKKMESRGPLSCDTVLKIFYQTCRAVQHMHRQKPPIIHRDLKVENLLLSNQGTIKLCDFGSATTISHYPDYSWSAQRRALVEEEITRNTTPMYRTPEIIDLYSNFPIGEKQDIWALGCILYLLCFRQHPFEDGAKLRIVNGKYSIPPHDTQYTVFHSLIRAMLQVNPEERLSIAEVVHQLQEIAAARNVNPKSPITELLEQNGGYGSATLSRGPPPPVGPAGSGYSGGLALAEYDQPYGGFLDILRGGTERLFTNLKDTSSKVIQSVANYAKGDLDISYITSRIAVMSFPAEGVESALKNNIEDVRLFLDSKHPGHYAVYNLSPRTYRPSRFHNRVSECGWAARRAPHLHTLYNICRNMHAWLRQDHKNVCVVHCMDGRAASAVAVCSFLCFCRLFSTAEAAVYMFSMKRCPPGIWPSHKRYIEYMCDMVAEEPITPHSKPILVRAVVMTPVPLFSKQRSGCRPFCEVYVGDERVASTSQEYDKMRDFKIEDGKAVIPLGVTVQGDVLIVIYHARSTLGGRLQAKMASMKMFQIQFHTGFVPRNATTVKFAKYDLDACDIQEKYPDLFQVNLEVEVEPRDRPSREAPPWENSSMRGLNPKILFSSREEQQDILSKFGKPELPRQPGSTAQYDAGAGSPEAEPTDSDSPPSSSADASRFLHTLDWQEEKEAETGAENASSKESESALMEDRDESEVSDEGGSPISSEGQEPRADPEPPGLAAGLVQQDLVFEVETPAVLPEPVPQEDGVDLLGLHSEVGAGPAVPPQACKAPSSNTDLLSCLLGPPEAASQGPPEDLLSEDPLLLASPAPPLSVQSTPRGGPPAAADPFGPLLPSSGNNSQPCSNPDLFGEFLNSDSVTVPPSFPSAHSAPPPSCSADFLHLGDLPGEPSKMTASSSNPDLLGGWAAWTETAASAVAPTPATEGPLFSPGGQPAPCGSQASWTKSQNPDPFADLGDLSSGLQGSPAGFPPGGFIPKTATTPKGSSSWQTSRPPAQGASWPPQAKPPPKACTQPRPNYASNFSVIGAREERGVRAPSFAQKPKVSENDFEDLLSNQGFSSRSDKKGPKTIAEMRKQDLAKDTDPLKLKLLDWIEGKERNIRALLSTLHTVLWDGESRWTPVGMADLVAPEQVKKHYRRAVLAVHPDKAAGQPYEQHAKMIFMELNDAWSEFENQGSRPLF

panel of 442 kinases [2] = molecular target: T2, panel of 442 kinases (Homo sapiens, UniProt Q9Y616); conditions: kinase IRAK3; for remaining activity at 1 µM: read-out: % of control at 1 µM
T2 construct: purchased Ambit Biosciences (scanMAXX KINOMEscan)
T2 sequence (Q9Y616 1-596): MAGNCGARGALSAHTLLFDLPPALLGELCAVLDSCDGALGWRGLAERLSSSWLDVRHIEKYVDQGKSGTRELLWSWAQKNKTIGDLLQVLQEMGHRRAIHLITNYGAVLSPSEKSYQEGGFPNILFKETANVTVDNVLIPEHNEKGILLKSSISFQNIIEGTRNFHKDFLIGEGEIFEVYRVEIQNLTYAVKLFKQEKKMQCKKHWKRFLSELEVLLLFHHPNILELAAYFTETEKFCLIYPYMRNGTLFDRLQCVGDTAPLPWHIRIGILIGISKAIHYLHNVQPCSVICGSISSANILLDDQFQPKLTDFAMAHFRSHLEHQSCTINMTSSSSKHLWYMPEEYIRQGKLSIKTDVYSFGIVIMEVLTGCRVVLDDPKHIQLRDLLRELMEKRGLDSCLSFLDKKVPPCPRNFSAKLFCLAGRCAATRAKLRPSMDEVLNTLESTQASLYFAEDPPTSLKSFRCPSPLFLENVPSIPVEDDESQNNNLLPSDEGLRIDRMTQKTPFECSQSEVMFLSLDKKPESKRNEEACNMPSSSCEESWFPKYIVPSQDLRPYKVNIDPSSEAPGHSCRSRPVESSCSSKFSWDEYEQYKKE

panel of 442 kinases [3] = molecular target: T3, panel of 442 kinases (Homo sapiens, UniProt O00329); conditions: kinase PIK3CD; 1 µM; read-out: % of control at 1 µM
T3 construct: purchased Ambit Biosciences (scanMAXX KINOMEscan)
T3 sequence (O00329 1-1044): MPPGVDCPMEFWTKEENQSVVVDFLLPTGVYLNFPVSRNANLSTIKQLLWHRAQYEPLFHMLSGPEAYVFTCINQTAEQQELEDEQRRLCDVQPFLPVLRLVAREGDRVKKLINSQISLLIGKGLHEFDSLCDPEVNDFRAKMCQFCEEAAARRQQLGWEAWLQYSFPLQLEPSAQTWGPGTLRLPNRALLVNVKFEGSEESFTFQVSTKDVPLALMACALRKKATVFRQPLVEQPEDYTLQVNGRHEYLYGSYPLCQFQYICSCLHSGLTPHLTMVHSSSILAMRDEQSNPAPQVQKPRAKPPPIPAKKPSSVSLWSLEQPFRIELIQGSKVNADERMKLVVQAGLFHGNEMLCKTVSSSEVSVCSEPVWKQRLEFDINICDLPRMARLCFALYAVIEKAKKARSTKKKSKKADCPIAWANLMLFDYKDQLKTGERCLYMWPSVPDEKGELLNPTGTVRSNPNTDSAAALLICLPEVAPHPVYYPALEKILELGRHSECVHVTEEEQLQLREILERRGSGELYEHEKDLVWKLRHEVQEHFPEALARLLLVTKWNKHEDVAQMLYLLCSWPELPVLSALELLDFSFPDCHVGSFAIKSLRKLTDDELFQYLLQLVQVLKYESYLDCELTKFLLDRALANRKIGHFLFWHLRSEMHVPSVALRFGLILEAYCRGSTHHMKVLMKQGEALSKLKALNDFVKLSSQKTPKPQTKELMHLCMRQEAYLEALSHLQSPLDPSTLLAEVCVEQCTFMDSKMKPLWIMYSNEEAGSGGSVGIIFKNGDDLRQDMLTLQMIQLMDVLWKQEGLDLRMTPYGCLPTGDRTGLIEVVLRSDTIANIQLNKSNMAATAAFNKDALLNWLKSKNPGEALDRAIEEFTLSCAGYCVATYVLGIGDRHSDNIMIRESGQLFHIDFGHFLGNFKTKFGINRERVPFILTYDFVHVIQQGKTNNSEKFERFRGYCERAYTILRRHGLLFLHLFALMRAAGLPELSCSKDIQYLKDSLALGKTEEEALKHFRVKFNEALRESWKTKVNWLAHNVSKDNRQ

[4] = 10 µM, read-out: % of control at 10 µM

Compound | remaining activity at 1 µM (panel of 442 kinases [1]) [%] | remaining activity at 10 µM (panel of 442 kinases [1]; [4]) [%] | remaining activity at 1 µM (panel of 442 kinases [2]) [%] | remaining activity at 10 µM (panel of 442 kinases [2]; [4]) [%] | remaining activity at 1 µM (panel of 442 kinases [3]) [%]
Nc1cc(C(F)(F)F)c(-c2cc(N3CCOCC3)nc(N3CCOCC3)n2)cn1 [Buparlisib] | 100 | 100 | 95 | 96 | 
Cn1c(=O)n(-c2ccc(C(C)(C)C#N)cc2)c2c3cc(-c4cnc5ccccc5c4)ccc3ncc21 [Dactolisib, 2-methyl-2-[4-(3-methyl-2-oxo-8-quinolin-3-yl-2,3-dihydroimidazo[4,5-c]quinolin-1-yl)-phenyl] propionitrile] | 60 |  | 50 |  | 12
COc1ncc(-c2ccc3nccc(-c4ccnnc4)c3c2)cc1NS(=O)(=O)c1ccc(F)cc1F [Omipalisib] | 61 |  | 26 |  | 0
FC(F)c1nc2ccccc2n1-c1nc(N2CCOCC2)nc(N2CCOCC2)n1 [ZSTK474, 2-(difluoromethyl)-1-[4,6-di(4-morpholinyl)-1,3,5-triazin-2-yl]-1H-benzimidazole] | 78 |  | 100 |  | 0
